Literature values, collected in US12582389B2, “Urine preservative composition, device for sampling urine and method for manufacturing a urine sampling device” (VACUTEST KIMA S.R.L., priority 2020, dated 2026).

Assays:
[1] = urine samples with boric acid
Klebsiella sp. = conditions: boric acid 1.5-2% W/V with respect to the sample volume

pH of urine samples [1]: ~5
Compound: OB(O)O [boric acid]
effect on the most sensitive Gram-negative bacterial strains (Klebsiella sp.): death
